Among the data in patent publication US11318134B2, “Benzamide compounds” (priority 2018, dated 2022) are Kd and IC50 values, retold here.

One test deals with Bcl-2 (Homo sapiens (Human), UniProt P10415). Nature of the test: Bcl-2 protein family binding assay (Bcl2scan platform), Bcl-2. Particulars: BIM peptide ligand, 11-point dilution, read-out: Bc1-2 Kd (nm). The method, then:
(§1) E. coli were grown to log-phase and infected with T7 phage from a frozen stock (multiplicity of infection=0.4) and incubated with shaking at 32° C. until lysis (90-150 minutes). The lysates were centrifuged (5,000×g) and filtered (0.2 μm) to remove cell debris. […] The liganded beads were blocked with excess biotin and washed with blocking buffer (SeaBlock (Pierce), 1% BSA, 0.05% Tween 20, 1 mM DTT) to remove unbound ligand and to reduce non-specific phage binding. […] Test compounds were prepared as 100× stocks in 100% DMSO. Kds were determined using an 11-point 3-fold compound dilution series with one DMSO control point. […] The compounds were then diluted directly into the assays such that the final concentration of DMSO was 0.9%. All reactions performed in polypropylene 384-well plates. Each was a final volume of 0.02 ml. […] The BCL2 concentration in the eluates was measured by qPCR. Binding constants (Kds) were calculated with a standard dose-response curve using the Hill equation:
(§2) [formula] The Hill Slope was set to −1. Curves were fitted using a non-linear least square fit with the Levenberg-Marquardt algorithm.

The next test concerns the target Bcl-XL (Homo sapiens (Human), UniProt Q07817). Nature of the test: Bcl-2 protein family binding assay (Bcl2scan platform), Bcl-XL. Particulars: BIM peptide ligand, 11-point dilution, read-out: Bc1-XL Kd (nm). As for the experimental part:
as §1, §2

The subject of the next test is RS4;11 cells. Description: RS4;11 cell proliferation assay (CellTiter-Glo). Type of test: cell-based. Particulars: Homo sapiens, RS4-11, 48 h, read-out: RS4;11 (nM), CTG IC50. As for the experimental part: Cell proliferation was measured using the CellTiter-Glo® Luminescent Cell Viability Assay. The assay involved the addition of a single reagent (CellTiter-Glo® Reagent) directly to cells cultured in serum-supplemented medium.
Each compound evaluated was prepared as a DMSO stock solution (10 mM). Compounds were tested in duplicate on each plate, with a 10-point serial dilution curve (1:3 dilution). Compound treatment (1.0 μL) was added from the compound dilution plate to the cell plate. The highest compound concentration was 10 μM (final), with a 0.1% final DMSO concentration. Plates were then incubated at 37° C., 5% CO2. After 48 h of compound treatment for RS4;11 or 72 h for NCI-H1963, cell plates were equilibrated at rt for approximately 30 mins. An equi-volume amount of CellTiter-Glo® Reagent (40 μL) was added to each well. […] Luminescence was recorded using a Envision plate reader according to CellTiter-Glo protocol. IC50 of each compound was calculated using GraphPad Prism by nonlinear regression analysis.
In general terms: ATP-based viability assays read luminescence as a measure of living cells.

Each structure is given as a SMILES string. Bounds are passed on as bounds.

Sequence of Bcl-2 (P10415 whole entry): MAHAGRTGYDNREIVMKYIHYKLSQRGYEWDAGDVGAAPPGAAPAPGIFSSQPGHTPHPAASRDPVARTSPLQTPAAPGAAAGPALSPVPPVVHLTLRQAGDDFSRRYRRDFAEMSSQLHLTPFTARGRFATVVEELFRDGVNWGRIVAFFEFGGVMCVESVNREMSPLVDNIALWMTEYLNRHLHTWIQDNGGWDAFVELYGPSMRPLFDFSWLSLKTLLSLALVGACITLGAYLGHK
Sequence of Bcl-XL (Q07817 whole entry): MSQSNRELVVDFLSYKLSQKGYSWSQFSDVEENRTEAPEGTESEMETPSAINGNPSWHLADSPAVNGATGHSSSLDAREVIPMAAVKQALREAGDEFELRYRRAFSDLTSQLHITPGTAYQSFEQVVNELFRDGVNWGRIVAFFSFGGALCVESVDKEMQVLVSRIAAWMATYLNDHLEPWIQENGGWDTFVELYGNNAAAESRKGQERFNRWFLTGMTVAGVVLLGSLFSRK

Take `CC1(C)CCC(CN2CCN(c3ccc(C(=O)NS(=O)(=O)c4ccc(OCC5(F)CCOCC5)c([N+](=O)[O-])c4)c(Oc4cnc5[nH]ccc5c4)c3)CC2)=C(C23CC(C(F)(F)F)(C2)C3)C1` [Example 31, 2-((1H-pyrrolo[2,3-b]pyridin-5-yl)oxy)-4-(4-((4,4-dimethyl-2-(3-(trifluoromethyl)bicyclo[1.1.1]pentan-1-yl)cyclohex-1-en-1-yl)methyl)piperazin-1-yl)-N-((4-((4-fluorotetrahydro-2H-pyran-4-yl)methoxy)-3-nitrophenyl)sulfonyl)benzamide]: the Kd is less than 10 nM at Bcl-2 and greater than 100 nM at Bcl-XL. Also, the IC50 in the test with RS4;11 cells is less than 100 nM.
For `CN1CCC(F)(CNc2ccc(S(=O)(=O)NC(=O)c3ccc(N4CCN(CC5=C(C67CC(C)(C6)C7)CC(C)(C)CC5)CC4)cc3Oc3cnc4[nH]ccc4c3)cc2[N+](=O)[O-])CC1` [Example 13, 2-((1H-pyrrolo[2,3-b]pyridin-5-yl)oxy)-4-(4-((4,4-dimethyl-2-(3-methylbicyclo[1.1.1]pentan-1-yl)cyclohex-1-en-1-yl)methyl)piperazin-1-yl)-N-((4-(((4-fluoro-1-methylpiperidin-4-yl)methyl)amino)-3-nitrophenyl)sulfonyl)benzamide] the same measures were less than 10 nM, greater than 100 nM and less than 100 nM.
Taken in the same sequence, the figures for `CC1(C)CCC(C23CC(C)(C2)C3)=C(CN2CCN(c3ccc(C(=O)NS(=O)(=O)c4ccc(N[C@H](CCN5CCOCC5)CSc5ccccc5)c(S(=O)(=O)C(F)(F)F)c4)cc3)CC2)C1` [Example 47, (R)-4-(4-((5,5-Dimethyl-2-(3-methylbicyclo[1.1.1]pentan-1-yl)cyclohex-1-enyl)methyl)piperazin-1-yl)-N-(4-(4-morpholino-1-(phenylthio)butan-2-ylamino)-3-(trifluoromethylsulfonyl)phenylsulfonyl)benzamide] were greater than 100 nM, 10 to 100 nM and greater than 1000 nM.
Turning to `CCC12CC(C3=C(CN4CCN(c5ccc(C(=O)NS(=O)(=O)c6ccc(NCC7CCOCC7)c([N+](=O)[O-])c6)c(Oc6cnc7[nH]ccc7c6)c5)CC4)CCC(C)(C)C3)(C1)C2` [Example 23, 2-(1H-pyrrolo[2,3-b]pyridin-5-yloxy)-4-(4-((2-(3-ethylbicyclo[1.1.1]pentan-1-yl)-4,4-dimethylcyclohex-1-enyl)methyl)piperazin-1-yl)-N-(3-nitro-4-((tetrahydro-2H-pyran-4-yl)methylamino)phenylsulfonyl)benzamide], the results for the dissociation constant (Kd) on Bcl-2 and on Bcl-XL were less than 10 nM and greater than 100 nM, respectively. Also, the IC50 in the test on RS4;11 cells is less than 100 nM.
For `CC1(C)CCC(CN2CCN(c3ccc(C(=O)NS(=O)(=O)c4ccc(NCC5CCOCC5)c([N+](=O)[O-])c4)c(Oc4cnc5[nH]ccc5c4)c3)CC2)=C(C23CC(C(F)(F)F)(C2)C3)C1` [Example 28, 2-((1H-pyrrolo[2,3-b]pyridin-5-yl)oxy)-4-(4-((4,4-dimethyl-2-(3-(trifluoromethyl)bicyclo[1.1.1]pentan-1-yl)cyclohex-1-en-1-yl)methyl)piperazin-1-yl)-N-((3-nitro-4-(((tetrahydro-2H-pyran-4-yl)methyl)amino)phenyl)sulfonyl)benzamide] the same measures were less than 10 nM, greater than 100 nM and less than 100 nM.
`CC1(C)CCC(CN2CCN(c3ccc(C(=O)NS(=O)(=O)c4ccc(NC[C@H]5CC[C@](C)(O)CC5)c([N+](=O)[O-])c4)c(Oc4cnc5[nH]ccc5c4)c3)CC2)=C(C23CC(C(F)(F)F)(C2)C3)C1` [Example 32, 2-((1H-pyrrolo[2,3-b]pyridin-5-yl)oxy)-4-(4-((4,4-dimethyl-2-(3-(trifluoromethyl)bicyclo[1.1.1]pentan-1-yl)cyclohex-1-en-1-yl)methyl)piperazin-1-yl)-N-((4-((((1r,4r)-4-hydroxy-4-methylcyclohexyl)methyl)amino)-3-nitrophenyl)sulfonyl)benzamide]: the Kd on Bcl-2 is less than 10 nM; at Bcl-XL, greater than 100 nM. For the same compound, the IC50 in the test on RS4;11 cells is less than 100 nM.
For the compound `CN1CCO[C@@H](CNc2ccc(S(=O)(=O)NC(=O)c3ccc(N4CCN(CC5=C(C67CC(C)(C6)C7)CC(C)(C)CC5)CC4)cc3Oc3cnc4[nH]ccc4c3)cc2[N+](=O)[O-])C1` [Example 19, (S)-2-((1H-pyrrolo[2,3-b]pyridin-5-yl)oxy)-4-(4-((4,4-dimethyl-2-(3-methylbicyclo[1.1.1]pentan-1-yl)cyclohex-1-en-1-yl)methyl)piperazin-1-yl)-N-((4-(((4-methylmorpholin-2-yl)methyl)amino)-3-nitrophenyl)sulfonyl)benzamide], the IC50 in the test with RS4;11 cells is less than 100 nM.
For `CC1(C)CCC(CN2CCN(c3ccc(C(=O)NS(=O)(=O)c4ccc(NCC5CCOCC5)c([N+](=O)[O-])c4)c(Oc4cnc5[nH]ccc5c4)c3)CC2)=C(C23CC(Cl)(C2)C3)C1` [Example 1, 2-(1H-Pyrrolo[2,3-b]pyridin-5-yl-oxy)-4-(4-((2-(3-chlorobicyclo[1.1.1]pentan-1-yl)-4,4-dimethylcyclohex-1-en-yl)methyl)piperazin-1-yl)-N-(3-nitro-4-((tetrahydro-2H-pyran-4-yl)methylamino)phenylsulfonyl)benzamide], the dissociation constant Kd at Bcl-2 is less than 10 nM; on Bcl-XL, greater than 100 nM. Besides, the IC50 with RS4;11 cells was less than 100 nM.
As for `CC1(C)CCC(CN2CCN(c3ccc(C(=O)NS(=O)(=O)c4ccc(NCC5CCOCC5)c([N+](=O)[O-])c4)c(Oc4cnc5[nH]ccc5c4)c3)CC2)=C(C23CC(C(C)(F)F)(C2)C3)C1` [Example 40, 2-(1H-pyrrolo[2,3-b]pyridin-5-yloxy)-4-(4-((2-(3-(1,1-difluoroethyl)bicyclo[1.1.1]pentan-1-yl)-4,4-dimethylcyclohex-1-enyl)methyl)piperazin-1-yl)-N-(3-nitro-4-((tetrahydro-2H-pyran-4-yl)methylamino)phenylsulfonyl)benzamide], the dissociation constant (Kd) on Bcl-2 is less than 10 nM; on Bcl-XL, greater than 100 nM. For the same compound, in the test with RS4;11 cells, the IC50 is less than 100 nM.
In the case of `CC1(C)CCC(CN2CCN(c3ccc(C(=O)NS(=O)(=O)c4ccc(OCC5(F)CCOCC5)c([N+](=O)[O-])c4)c(Oc4cnc5[nH]ccc5c4)c3)CC2)=C(C23CC(C)(C2)C3)C1` [Example 16, 2-((1H-pyrrolo[2,3-b]pyridin-5-yl)oxy)-4-(4-((4,4-dimethyl-2-(3-methylbicyclo[1.1.1]pentan-1-yl)cyclohex-1-en-1-yl)methyl)piperazin-1-yl)-N-((4-((4-fluorotetrahydro-2H-pyran-4-yl)methoxy)-3-nitrophenyl)sulfonyl)benzamide], the equilibrium dissociation constant (Kd) was less than 10 nM at Bcl-2 and greater than 100 nM at Bcl-XL. The IC50 in the test on RS4;11 cells is less than 100 nM.
For `CCC12CC(C3=C(CN4CCN(c5ccc(C(=O)NS(=O)(=O)c6ccc(NC[C@H]7CC[C@](C)(O)CC7)c([N+](=O)[O-])c6)c(Oc6cnc7[nH]ccc7c6)c5)CC4)CCC(C)(C)C3)(C1)C2` [Example 27, 2-((1H-pyrrolo[2,3-b]pyridin-5-yl)oxy)-4-(4-((2-(3-ethylbicyclo[1.1.1]pentan-1-yl)-4,4-dimethylcyclohex-1-en-1-yl)methyl)piperazin-1-yl)-N-((4-((((1r,4r)-4-hydroxy-4-methylcyclohexyl)methyl)amino)-3-nitrophenyl)sulfonyl)benzamide] the same measures were less than 10 nM, greater than 100 nM and less than 100 nM.
On to `CN1CCO[C@H](CNc2ccc(S(=O)(=O)NC(=O)c3ccc(N4CCN(CC5=C(C67CC(C)(C6)C7)CC(C)(C)CC5)CC4)cc3Oc3cnc4[nH]ccc4c3)cc2[N+](=O)[O-])C1` [Example 18, (R)-2-((1H-pyrrolo[2,3-b]pyridin-5-yl)oxy)-4-(4-((4,4-dimethyl-2-(3-methylbicyclo[1.1.1]pentan-1-yl)cyclohex-1-en-1-yl)methyl)piperazin-1-yl)-N-((4-(((4-methylmorpholin-2-yl)methyl)amino)-3-nitrophenyl)sulfonyl)benzamide], for which, in the test with RS4;11 cells, the IC50 is less than 100 nM.
In the case of `CC(C)C12CC(C3=C(CN4CCN(c5ccc(C(=O)NS(=O)(=O)c6ccc(NCC7CCOCC7)c([N+](=O)[O-])c6)c(Oc6cnc7[nH]ccc7c6)c5)CC4)CCC(C)(C)C3)(C1)C2` [Example 39, 2-((1H-pyrrolo[2,3-b]pyridin-5-yl)oxy)-4-(4-((2-(3-isopropylbicyclo[0.1.1]pentan-1-yl)-4,4-dimethylcyclohex-1-en-1-yl)methyl)piperazin-1-yl)-N-((3-nitro-4-(((tetrahydro-2H-pyran-4-yl)methyl)amino)phenyl)sulfonyl)benzamide], the results for the Kd on Bcl-2 and at Bcl-XL were 10 to 100 nM and greater than 100 nM, respectively. The IC50 with RS4;11 cells is less than 100 nM.

The term Kd denotes a measure of binding affinity in units of concentration.
